The NIST ThermoML archive (doi:10.1016/j.jct.2006.07.023)
Several values for one entry are separate records, joined by “and”; a condition that tells them apart may be missing. Identical values can stand only once. Numbers after ± are expanded uncertainties.

Legend:
[1] = Molar enthalpy of transition or fusion; details: DSC
[2] = DTA

Which “Molar enthalpy of transition or fusion” value ([1]; Crystal) does the source give for `CCCC(=O)[O-].CCCC(=O)[O-].[Pb+2]` [lead(2+) dibutanoate] here?
Its value is 14.7 kJ/mol and 14.6 kJ/mol.

And the “Molar enthalpy of transition or fusion” value ([1]; Metastable crystal)?
Its value is 7.7 ± 0.8 kJ/mol.

What about the Triple point temperature ([2]; Crystal) of the same molecule?
Its Triple point temperature is 346.5 ± 0.7 K and 346.3 ± 0.9 K.

And the Glass transition temperature [2]?
The Glass transition temperature was 1.8 ± 3 °C.

And the Triple point temperature ([2]; Metastable crystal)?
Its Triple point temperature is 322.8 ± 1.1 K.

With `CC(=O)[O-].CC(=O)[O-].[Pb+2]` [lead(2+) acetate] as the molecule, how does the “Molar enthalpy of transition or fusion” value ([1]; Crystal) read?
The value was 15.8 ± 0.4 kJ/mol.

And the Triple point temperature ([2]; Crystal)?
Its Triple point temperature is 452.3 ± 1.6 K.

What about the Glass transition temperature [2] of the same molecule?
The Glass transition temperature was 41.2 ± 3 °C.

Which “Molar enthalpy of transition or fusion” value ([1]; Crystal) does the source give for `CCC(=O)[O-].CCC(=O)[O-].[Pb+2]` [lead(2+) dipropanoate] here?
The value was 13.1 ± 0.4 kJ/mol.

What about the Triple point temperature ([2]; Crystal) of the same molecule?
Its Triple point temperature is 398.1 ± 1.1 K.

What about the Glass transition temperature [2] of the same molecule?
Its Glass transition temperature is 25 ± 3 °C.
